Test results reported in PubChem BioAssay AID1963843 (Molecular Pharmacology Branch, DTP, NCI, 2024).

System: 616215-338-R-J1-PDC complex spheroid viability
Assay: Anticancer human tumor 616215-338-R-J1-PDC patient-derived colon adenocarcinoma cell line growth inhibition [POLQ]
Details: for IC50: curve of first compound; for viability, T/C: stronger effect = lower value
Experimental: Multicellular complex tumor spheroid response to Polymerase (POL) inhibitors (novobiocin, ART-558, RP6685) in combination with a variety of drugs and investigational agents in selected tumor cell lines
The POL inhibitors (novobiocin, ART-558, and RP6685) were evaluated both individually and in combination with standard of care and investigational anticancer small molecules within a complex spheroid model of solid tumors. . Complex spheroids include a stromal component modeled by human endothelial cells (HUVEC) and fibroblasts modeled by human mesenchymal stem cells (MSCs). The concentration ranges selected for each drug and investigational agent were based upon clinically achievable concentrations if the clinical Cmax of the agent was known.
Compounds. The drugs and investigational agents: novobiocin (NSC847541), ART-558 (NSC835418), RP-6685 (NSC848927), peposertib (NSC802822), ceralasertib (NSC780249), elimusertib (NSC800525), camonsertib (NSC841442), AZD-1390 (NSC803789), olaparib (NSC753686), talazoparib (NSC767125), rucaparib (NSC756644), sotorasib (NSC818433), MRTX-1133 (NSC836407), SN-38 (NSC673596), topotecan (NSC609699), epotoside (NSC141540), doxorubicin (NSC123127), gemcitabine (NSC613327), 5-fluorouracil (NSC19893), paclitaxel (NSC125973), vemurafenib (NSC761431), MSA-2 (NSC828583), SN-011 (NSC837082), adavosertib (NSC754352), prexasertib (NSC758257), carboplatin (NSC241240) and oxaliplatin (NSC266046), were obtained from the National Cancer Institute (NCI) Developmental Therapeutics Program Chemical Repository (21). The FDA-approved anticancer drug set is available from the Developmental Therapeutics Program at https://dtp.cancer.gov/organization/dscb/obtaining/. […] The stock solutions were prepared in dimethyl sulfoxide (DMSO, Sigma-Aldrich, St. Louis, MO, cat. D2650), except for the platinum compounds which were prepared in saline (Quality Biological, Gaithersburg, MD, cat. 114-055-101), at 800-fold the tested concentration and stored at -70 degrees C prior to their use. All drugs and investigational agents were tested over a range starting from a high concentration at or near the clinical Cmax and decreasing in half-log increments. If the clinical Cmax for an agent had not been determined, the highest concentration tested was 10 microM, except for SN-38, which was tested at a high concentration of 1 microM.
Cell Culture. All cells were maintained in an incubator at 37 degrees C and 5% CO2 with 95% humidity. The PDC lines were cultured according to standard operating procedures established by the NCI PDMR (https://pdmr.cancer.gov). Table 3 of the manuscript, lists the cell lines along with the number of the three cell types plated to form the mct-spheroids and media for tumor cell growth. After thawing, all PDC lines, except 997537-175-T-J1-PDC and 415267-285-R-J2-PDC, were cultured in Matrigel-coated flasks prepared with a working solution of 1X Ham's F-12 nutrient mix, without supplementation (Thermo Fisher Scientific, cat. 11765054), 100 U/mL penicillin-streptomycin (Thermo Fisher Scientific, cat. 15140122), and 2.5% Matrigel (Corning Inc., Corning, NY, cat. 354248) for the first three passages. The two PDC lines 997537-175-T-J1-PDC and 415267-285-R-J2-PDC were cultured on uncoated flasks. The 857933-349-R-J2-PDC line was cultured in 6C/Colon 1B media containing advanced DMEM/F-12 (Thermo Fisher Scientific, cat. 12634028), 10 mM HEPES (Thermo Fisher Scientific, cat. 15630080), 1X GlutaMAX supplement (Thermo Fisher Scientific, cat. 35050061), 0.1 mg/mL primocin (InvivoGen, San Diego, CA, cat. ant-pm-2), 10% defined fetal bovine serum, heat inactivated (HyClone Laboratories Inc., Logan, UT, cat. SH30070.03HI), 50% L-WRN conditioned media (ATCC, cat. CRL-3276), 1.25 mM N-Acetyl-L-cysteine (Sigma-Aldrich, cat. A9165), 10 mM nicotinamide (Sigma-Aldrich, cat. N0636), 1X B-27 supplement (Thermo Fisher Scientific, cat. 17504044), 1X N-2 supplement (Thermo Fisher Scientific, cat. […]

[1] = second compound 0.0316 µM, first compound 0.0316 µM
[2] = second compound 0.0316 µM, first compound 0.1 µM
[3] = second compound 0.0316 µM, first compound 0.316 µM
[4] = second compound 0.0316 µM, first compound 1 µM
[5] = second compound 0.0316 µM, first compound 3.16 µM
[6] = second compound 0.0316 µM, first compound 10 µM
[7] = second compound 0.1 µM, first compound 0.0316 µM
[8] = second compound 0.1 µM, first compound 0.1 µM
[9] = second compound 0.1 µM, first compound 0.316 µM
[10] = second compound 0.1 µM, first compound 1 µM
[11] = second compound 0.1 µM, first compound 3.16 µM
[12] = second compound 0.1 µM, first compound 10 µM
[13] = second compound 0.316 µM, first compound 0.0316 µM
[14] = second compound 0.316 µM, first compound 0.1 µM
[15] = second compound 0.316 µM, first compound 0.316 µM
[16] = second compound 0.316 µM, first compound 1 µM
[17] = second compound 0.316 µM, first compound 3.16 µM
[18] = second compound 0.316 µM, first compound 10 µM
[19] = second compound 1 µM, first compound 0.0316 µM
[20] = second compound 1 µM, first compound 0.1 µM
[21] = second compound 1 µM, first compound 0.316 µM
[22] = second compound 1 µM, first compound 1 µM
[23] = second compound 1 µM, first compound 3.16 µM
[24] = second compound 1 µM, first compound 10 µM
[25] = second compound 3.16 µM, first compound 0.0316 µM
[26] = second compound 3.16 µM, first compound 0.1 µM
[27] = second compound 3.16 µM, first compound 0.316 µM
[28] = second compound 3.16 µM, first compound 1 µM
[29] = second compound 3.16 µM, first compound 3.16 µM
[30] = second compound 3.16 µM, first compound 10 µM
[31] = second compound 10 µM, first compound 0.0316 µM
[32] = second compound 10 µM, first compound 0.1 µM
[33] = second compound 10 µM, first compound 0.316 µM
[34] = second compound 10 µM, first compound 1 µM
[35] = second compound 10 µM, first compound 3.16 µM
[36] = second compound 10 µM, first compound 10 µM
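Further: spheroids exposed to compounds for one week before readout.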
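Wherever viability, T/C is given: percent viability relative to DMSO vehicle wells taken as 100%.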

CC1COCCN1c1cc(C2(O)CC3CCC(C2)O3)c2cnn(-c3ccn[nH]3)c2n1 (centres undefined) + COC1C(OC(N)=O)C(O)C(Oc2ccc3c(O)c(NC(=O)c4ccc(O)c(CC=C(C)C)c4)c(=O)oc3c2C)OC1(C)C
IC50 (second compound 0.0316 µM): 1990 nM | IC50 (second compound 0.1 µM): 2050 nM | IC50 (second compound 0.316 µM): 1830 nM | IC50 (second compound 1 µM): 2040 nM | IC50 (second compound 3.16 µM): 1290 nM | IC50 (second compound 10 µM): 960 nM | viability, T/C [1]: 109% | viability, T/C [2]: 91.5% | viability, T/C [3]: 71% | viability, T/C [4]: 64.1% | viability, T/C [5]: 39.5% | viability, T/C [6]: 35.6% | viability, T/C [7]: 102% | viability, T/C [8]: 91.4% | viability, T/C [9]: 72% | viability, T/C [10]: 57.6% | viability, T/C [11]: 46.7% | viability, T/C [12]: 36.5% | viability, T/C [13]: 106% | viability, T/C [14]: 90.2% | viability, T/C [15]: 69.4% | viability, T/C [16]: 60.1% | viability, T/C [17]: 42.7% | viability, T/C [18]: 30.5% | viability, T/C [19]: 105% | viability, T/C [20]: 90.6% | viability, T/C [21]: 74.3% | viability, T/C [22]: 57.1% | viability, T/C [23]: 47.8% | viability, T/C [24]: 28% | viability, T/C [25]: 99.4% | viability, T/C [26]: 86.8% | viability, T/C [27]: 64.5% | viability, T/C [28]: 50.3% | viability, T/C [29]: 46.2% | viability, T/C [30]: 21.6% | viability, T/C [31]: 100% | viability, T/C [32]: 79.3% | viability, T/C [33]: 57.4% | viability, T/C [34]: 53.2% | viability, T/C [35]: 40.5% | viability, T/C [36]: 25.2%

CCc1cc2c(N3CCc4c(cc(Cn5ccnc5)cc4-c4cn(C)nc4C(F)(F)F)C3=O)ccnc2c(OC)n1 + Nc1ccc(C#CCN(C(=O)Cc2ncc(C(F)(F)F)cc2C(F)(F)F)c2ccc(F)cc2)nn1
IC50 (second compound 0.0316 µM): > 10000 nM | IC50 (second compound 0.1 µM): 6520 nM | IC50 (second compound 0.316 µM): 5190 nM | IC50 (second compound 1 µM): 3070 nM | IC50 (second compound 3.16 µM): 4400 nM | IC50 (second compound 10 µM): 2690 nM | viability, T/C [1]: 118% | viability, T/C [2]: 111% | viability, T/C [3]: 95.6% | viability, T/C [4]: 56.6% | viability, T/C [5]: 54.1% | viability, T/C [6]: 49.1% | viability, T/C [7]: 117% | viability, T/C [8]: 120% | viability, T/C [9]: 88.8% | viability, T/C [10]: 66.8% | viability, T/C [11]: 55.8% | viability, T/C [12]: 45.4% | viability, T/C [13]: 121% | viability, T/C [14]: 113% | viability, T/C [15]: 98.9% | viability, T/C [16]: 64.7% | viability, T/C [17]: 53.6% | viability, T/C [18]: 46.9% | viability, T/C [19]: 111% | viability, T/C [20]: 107% | viability, T/C [21]: 94.9% | viability, T/C [22]: 56.2% | viability, T/C [23]: 63.8% | viability, T/C [24]: 37.3% | viability, T/C [25]: 115% | viability, T/C [26]: 110% | viability, T/C [27]: 98% | viability, T/C [28]: 70.8% | viability, T/C [29]: 56.4% | viability, T/C [30]: 40.4% | viability, T/C [31]: 100% | viability, T/C [32]: 104% | viability, T/C [33]: 95.3% | viability, T/C [34]: 68.4% | viability, T/C [35]: 48.6% | viability, T/C [36]: 40.4%
